Measurements: patent publication US20200296959A1, “DISINFECTION AND/OR STERILIZATION OF AGRICULTURAL CROPS” (priority 2019, published 2020)

System: Bacillus atrophaeus spore strips
Experiment: Microbial decontamination barrel: sterilization of Steritest biological indicator spore strips
Method: Barrel Setup: All cycles were performed using a 48.8 gallon steel barrel with an airtight lid sealed with a rubber gasket.
Barrels were fitted with an SEC Sensor to monitor EO concentration throughout the cycle
The unit utilizes AN 7916 Anprolene gas release ampoules, which contain approximately 17.6 g of EO. The number of ampoules can be adjusted according to load weight.
Barrels were fitted with an observation chamber containing a chemical integrator, referred to a dosimeter. This allows sterilization progress to be monitored in real time with no disruption to the cycle.
An external recirculating abator cartridge was attached to the lid of the barrel to neutralize EO when the cycle is complete.
Humidichips, a Madgetech Datalogger, and a Steritest biological indicator including a Dosimeter and a Bacillus atrophaeus spore strip, were placed in the bottom of the barrel. An AN 7916 EO 17.6 g ampule was activated then placed in the bottom of the barrel.
Further, paper represents a reasonable proxy for agricultural materials such as hemp and marijuana, as all of these materials are all cellulosic materials.
In this example, the barrel was loaded with 150 lbs of paper. Humidichips, a Madgetech Datalogger, and a Steritest were placed in the middle of the load. The Barrel was filled to the top with cloth materials (which are also cellulosic materials). […]

C1CO1 [ethylene oxide]
ethylene oxide levels sufficient to kill biological surrogates (Bacillus atrophaeus) included with each load (microbial decontamination barrel, each load): sufficient to kill 10^6 biological surrogates
sterilization of Bacillus atrophaeus spore strips contained in the Steritest (seven 2-4 day cycles, 48.8 gallon barrel, 17.6 g EO ampoule, room temperature (around 20° C.), empty and paper loads): successfully sterilized
